Values of other authors in US20160279057A1, “Azelastine Formulations For Intranasal Nebulization And Irrigation” (CMPD LICENSING, LLC, priority 2015, published 2016).
Where a name gives a salt, the structure may show the parent alone.

solubility in ethanol (ethanol): slightly soluble | solubility in glycerin (glycerin): slightly soluble | solubility in methanol (methanol): sparingly soluble | solubility in octanol (octanol): slightly soluble | solubility in propylene glycol (propylene glycol): sparingly soluble | solubility in water (water): sparingly soluble
Structure (SMILES): CN1CCCC(n2nc(Cc3ccc(Cl)cc3)c3ccccc3c2=O)CC1 (stereo not drawn) [Azelastine hydrochloride, azelastine hydrochloride]
